Results on 15 compounds are retold here after US20260356851A1, “TRICYCLIC COMPOUNDS AND USES THEREOF” (HUTCHMED LIMITED, priority 2023, published 2026).

What all share (format): cell-based
For experiment [1], the target named is T1, pERK1/2 (Thr202/Tyr204), NCI-1H358 (KRAS G12C) (Homo sapiens, UniProt P01116, G12C).
T1 construct: pERK1/2 HTRF read-out
The experiment in a line: Assay of intracellular pERK1/2 (Thr202/Tyr204) phosphorylation in NCI-H358 cells (KRAS G12C). To be noted: pERK1/2, 2 days, read-out: NCI-H358 (KRAS G12C) IC50. An outline of the steps: (§1)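 HTRF detection of Thr202/Tyr204-phosphorylated ERK1/2 (665/615 nm ratio) in lysates from cells treated 2 days with serially 3-fold diluted compound.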

In experiment [2] the target is T2, pERK1/2 (Thr202/Tyr204), PANC-1 (KRAS G121D) (Homo sapiens, UniProt P01116, G12D).
T2 construct: pERK1/2 HTRF read-out
The experiment in a line: Assay of intracellular pERK1/2 (Thr202/Tyr204) phosphorylation in PANC-1 cells (KRAS G12D). To be noted: pERK1/2, 2 days, read-out: PANC-1 (KRAS G12D) IC50. An outline of the steps: as §1

Experiment [3] addresses T3, pERK1/2 (Thr202/Tyr204), NCI-1H441 (KRAS G12V) (Homo sapiens, UniProt P01116, G12V).
T3 construct: pERK1/2 HTRF read-out
The experiment is described as follows: Assay of intracellular pERK1/2 (Thr202/Tyr204) phosphorylation in NCI-H441 cells (KRAS G12V). The conditions noted are these: pERK1/2, 2 days, read-out: NCI-H441 (KRAS G12V) IC50. An outline of the steps: as §1

By IC50 is commonly meant the concentration at which inhibition is half-maximal.

A value given as a limit tells only on which side of the number the result lay.

T3 sequence (P01116 1-188 isoform P01116-2 G12V): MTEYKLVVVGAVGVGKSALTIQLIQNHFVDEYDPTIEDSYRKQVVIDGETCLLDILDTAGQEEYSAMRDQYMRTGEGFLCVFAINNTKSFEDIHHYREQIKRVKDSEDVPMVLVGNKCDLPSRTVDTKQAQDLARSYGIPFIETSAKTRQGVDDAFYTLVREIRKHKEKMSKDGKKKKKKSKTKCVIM
T2 sequence (P01116 1-188 isoform P01116-2 G12D): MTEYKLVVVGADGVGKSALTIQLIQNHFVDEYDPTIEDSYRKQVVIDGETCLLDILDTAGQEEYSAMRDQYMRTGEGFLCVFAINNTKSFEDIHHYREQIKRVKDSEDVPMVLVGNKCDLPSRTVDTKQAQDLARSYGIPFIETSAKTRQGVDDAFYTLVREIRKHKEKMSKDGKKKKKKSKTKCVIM
T1 sequence (P01116 1-188 isoform P01116-2 G12C): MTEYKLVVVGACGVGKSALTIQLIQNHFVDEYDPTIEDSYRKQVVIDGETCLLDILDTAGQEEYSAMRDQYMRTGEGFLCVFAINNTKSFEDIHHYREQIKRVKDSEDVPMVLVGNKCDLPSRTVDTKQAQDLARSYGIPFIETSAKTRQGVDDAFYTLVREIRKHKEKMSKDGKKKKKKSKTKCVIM

Turning to `Cc1cc(N)cc(-c2nc3c4c(nc(OC[C@@H]5C[C@@H](F)CN5C)nc4c2F)N(C(C)c2cccnc2N)[C@@H](C)CO3)c1C(F)(F)F` (single isomer, unassigned) [Compound 283, 3-((R or S)-1-((S)-5-(5-amino-3-methyl-2-(trifluoromethyl)phenyl)-4-fluoro-2-(((2S,4R)-4-fluoro-1-methylpyrrolidin-2-yl)methoxy)-9-methyl-8,9-dihydro-10H-7-oxa-1,3,6,10-tetraazacyclohepta[de]naphthalen-10-yl)ethyl)pyridin-2-amine], the results for the IC50 in experiment [1], in experiment [2] and in experiment [3] were 55 nM, above 100 nM and above 100 nM, respectively.

For `C#Cc1c(F)ccc2cc(O)cc(-c3nc4c5c(nc(OC[C@@H]6C[C@@H](F)CN6C)nc5c3F)N(C(C)c3cccnc3N)[C@@H](C)CO4)c12` (single isomer, unassigned) [Compound 284, 4-((S)-10-((R or S)-1-(2-aminopyridin-3-yl)ethyl)-4-fluoro-2-(((2S,4R)-4-fluoro-1-methylpyrrolidin-2-yl)methoxy)-9-methyl-9,10-dihydro-8H-7-oxa-1,3,6,10-tetraazacyclohepta[de]naphthalen-5-yl)-5-ethynyl-6-fluoronaphthalen-2-ol], the IC50 in experiment [1] amounted to 0.2 nM; in experiment [2], 0.3 nM; in experiment [3] it was 0.5 nM.

Turning to `C#Cc1c(F)ccc2cc(O)cc(-c3nc4c5c(nc(OC[C@@H]6C[C@@H](F)CN6C)nc5c3F)N(C(C)c3cccnc3N)[C@@H](C)CO4)c12` (single isomer, unassigned) [Compound 285, 4-((S)-10-((R or S)-1-(2-aminopyridin-3-yl)ethyl)-4-fluoro-2-(((2S,4R)-4-fluoro-1-methylpyrrolidin-2-yl)methoxy)-9-methyl-9,10-dihydro-8H-7-oxa-1,3,6,10-tetraazacyclohepta[de]naphthalen-5-yl)-5-ethynyl-6-fluoronaphthalen-2-ol], the IC50 turned out to be 27 nM in experiment [1], 86 nM in experiment [2] and 17 nM in experiment [3].

On to `C[C@H](c1cccnc1N)N1c2nc(OC[C@@H]3C[C@@H](F)CN3C)nc3c(F)c(-c4cc(N)cc(Cl)c4C(F)(F)F)nc(c23)OC[C@@H]1C` (single isomer, unassigned) [Compound 286, 3-((R or S)-1-((S)-5-(5-amino-3-chloro-2-(trifluoromethyl)phenyl)-4-fluoro-2-(((2S,4R)-4-fluoro-1-methylpyrrolidin-2-yl)methoxy)-9-methyl-8,9-dihydro-1H-7-oxa-1,3,6,10-tetraazacyclohepta[de]naphthalen-10-yl)ethyl)pyridin-2-amine], for which the values for the IC50 in experiment [1], in experiment [2] and in experiment [3] were 57 nM, above 100 nM and above 100 nM, respectively.

Take `CC(c1cccnc1N)N1c2nc(OC[C@@H]3C[C@@H](F)CN3C)nc3c(F)c(-c4cc(N)cc(Cl)c4C(F)(F)F)nc(c23)OC[C@@H]1C` (single isomer, unassigned) [Compound 287, 3-((R or S)-1-((S)-5-(5-amino-3-chloro-2-(trifluoromethyl)phenyl)-4-fluoro-2-(((2S,4R)-4-fluoro-1-methylpyrrolidin-2-yl)methoxy)-9-methyl-8,9-dihydro-10H-7-oxa-1,3,6,10-tetraazacyclohepta[de]naphthalen-10-yl)ethyl)pyridin-2-amine]: the half-inhibitory concentration (IC50) in experiment [1] was found to be 0.2 nM; in experiment [2], 2 nM; in experiment [3], 0.4 nM.

As for `CC(c1cccnc1N)N1c2nc(OC[C@@]34CCCN3C[C@H](F)C4)nc3c(F)c(-c4c(C(F)(F)F)c(Cl)cc5[nH]ncc45)nc(c23)OC[C@@H]1C` (single isomer, unassigned) [Compound 330], the IC50 is 0.4 nM in experiment [1], 0.3 nM in experiment [2] and 0.5 nM in experiment [3].

With `CC(c1cccnc1N)N1c2nc(OC[C@@]34CCCN3C[C@H](F)C4)nc3c(F)c(-c4c(Cl)c(C(F)(F)F)cc5[nH]ncc45)nc(c23)OC[C@@H]1C` (single isomer, unassigned) [Compound 361], the IC50 in experiment [1] is 2 nM; in experiment [2], 34 nM; in experiment [3], 5 nM.

`CC(c1cccnc1N)N1c2nc(OC[C@@]34CCCN3C[C@H](F)C4)nc3c(F)c(-c4c5c(cc6[nH]ncc46)CCC5=O)nc(c23)OC[C@@H]1C` (single isomer, unassigned) [Compound 373]: the IC50 in experiment [1] came to 14 nM; in experiment [2], 41 nM; in experiment [3], 25 nM.

For `Cc1c(C(F)(F)F)c(-c2nc3c4c(nc(OC[C@@]56CCCN5C[C@H](F)C6)nc4c2F)N(C(C)c2cccnc2N)[C@@H](C)CO3)c2c(Cl)n[nH]c2c1F` (single isomer, unassigned) [Compound 382], the half-inhibitory concentration (IC50) was 3 nM in experiment [1], 2 nM in experiment [2] and 5 nM in experiment [3].

In the case of `[2H]C1([2H])CC[C@@]2(C([2H])([2H])Oc3nc4c5c(nc(-c6cc(N)c(F)c(C)c6C(F)(F)F)c(F)c5n3)OCCN4C(C)c3cccnc3N)C[C@@]([2H])(F)CN12` (single isomer, unassigned; diastereomer 1) [Compound 178, (*)3-(1-(5-(5-amino-4-fluoro-3-methyl-2-(trifluoromethyl)phenyl)-4-fluoro-2-(((2R or 2S,7aS)-2-fluorotetrahydro-1H-pyrrolizin-7a(5H)-yl-2,5,5-d3)methoxy-d2)-8,9-dihydro-10H-7-oxa-1,3,6,10-tetraazacyclohepta[de]naphthalen-10-yl)ethyl)pyridin-2-amine (diastereomer 1)], the IC50 in experiment [1] amounted to 0.1 nM; in experiment [2], 1 nM; in experiment [3] it was 0.4 nM.

In the case of `Cc1c(F)c(N)cc(-c2nc3c4c(nc(OC[C@@]56CCCN5C[C@@]5(CC5(F)F)C6)nc4c2F)N(C(C)c2cccnc2N)CCO3)c1C(F)(F)F` (single isomer, unassigned; diastereomer 1) [Compound 238, (*)3-(1-(5-(5-amino-4-fluoro-3-methyl-2-(trifluoromethyl)phenyl)-2-(((1R or 1S,7a′S)-2,2-difluorodihydro-1′H,3′H-spiro[cyclopropane-1,2′-pyrrolizin]-7a′(5′H)-yl)methoxy)-4-fluoro-8,9-dihydro-10H-7-oxa-1,3,6,10-tetraazacyclohepta[de]naphthalen-10-yl)ethyl)pyridin-2-amine (diastereomer 1)], the IC50 in experiment [1] came out at 0.2 nM; in experiment [2], 0.8 nM; in experiment [3], 0.6 nM.

With `Cc1c(F)c(N)cc(-c2nc3c4c(nc(OCC56CC(F)CN5CC(F)C6)nc4c2F)N(C(C)c2cccnc2N)CCO3)c1C(F)(F)F` (single isomer, unassigned; diastereomer 1) [Compound 241, (*)3-(1-(5-(5-amino-4-fluoro-3-methyl-2-(trifluoromethyl)phenyl)-2-(((2R or 2S,6R or 6S)-2,6-difluorotetrahydro-1H-pyrrolizin-7a(5H)-yl)methoxy)-4-fluoro-8,9-dihydro-10H-7-oxa-1,3,6,10-tetraazacyclohepta[de]naphthalen-10-yl)ethyl)pyridin-2-amine (diastereomer 1)], the IC50 in experiment [1] stood at 0.2 nM; in experiment [2], 13 nM; in experiment [3], 0.9 nM.

For the compound `CC(c1cccnc1N)N1CCOc2nc(-c3cc(N)c(F)c(Cl)c3C(F)(F)F)c(F)c3nc(OCC45CC(F)CN4CC(F)C5)nc1c23` (single isomer, unassigned; diastereomer 1) [Compound 245, (*)3-(1-(5-(5-amino-3-chloro-4-fluoro-2-(trifluoromethyl)phenyl)-2-(((2R or 2S,6R or 6S)-2,6-difluorotetrahydro-1H-pyrrolizin-7a(5H)-yl)methoxy)-4-fluoro-8,9-dihydro-10H-7-oxa-1,3,6,10-tetraazacyclohepta[de]naphthalen-10-yl)ethyl)pyridin-2-amine (diastereomer 1)], the IC50 in experiment [1] was 0.2 nM; in experiment [2], 10 nM; in experiment [3], 0.5 nM.

Take `CC(c1cccnc1N)N1c2nc(OC[C@@]34CCCN3C[C@H](F)C4)nc3c(F)c(-c4c(C(F)(F)F)ccc5c4CCCN5)nc(c23)OC[C@@H]1C` (single isomer, unassigned; diastereomer 1) [Compound 338, (*)3-(1-((5R or 5S,9S)-4-fluoro-2-(((2R,7aS)-2-fluorotetrahydro-1H-pyrrolizin-7a(5H)-yl)methoxy)-9-methyl-5-(6-(trifluoromethyl)-1,2,3,4-tetrahydroquinolin-5-yl)-8,9-dihydro-10H-7-oxa-1,3,6,10-tetraazacyclohepta[de]naphthalen-10-yl)ethyl)pyridin-2-amine (diastereomer 1)]: the values for the IC50 in experiment [1], in experiment [2] and in experiment [3] were 23 nM, above 100 nM and 49 nM, respectively.

As to `[2H]C1([2H])CC[C@@]2(C([2H])([2H])Oc3nc4c5c(nc(-c6cc(N)c(F)c(C)c6C(F)(F)F)c(F)c5n3)OCCN4C(C)c3cccnc3N)C[C@]([2H])(F)CN12` (single isomer, unassigned; diastereomer 2) [Compound 179, (*)3-(1-(5-(5-amino-4-fluoro-3-methyl-2-(trifluoromethyl)phenyl)-4-fluoro-2-(((2R or 2S,7aS)-2-fluorotetrahydro-1H-pyrrolizin-7a(5H)-yl-2,5,5-d3)methoxy-d2)-8,9-dihydro-10H-7-oxa-1,3,6,10-tetraazacyclohepta[de]naphthalen-10-yl)ethyl)pyridin-2-amine (diastereomer 2)], the IC50 in experiment [1] amounted to 1 nM; in experiment [2] it was 20 nM; in experiment [3], 3 nM.
